According to patent US10968225B2, “Compounds and compositions for the treatment of cystic fibrosis” (Fondazione Istituto Italiano Di Tecnologia, priority 2017, dated 2021):
pEC50: −log10 of the molar value.

Biological target: T1, mutant CFTR (Homo sapiens, UniProt P13569, DEL508-508)
T1 construct: expressed in transfected cells
Test: Fluorescence (HS-YFP) assay for CFTR activity, corrector assay
Format: cell-based
Conditions: CFBE41o- and FRT cells with stable expression of mutant CFTR, read-out: activity (EC50)

T1 sequence (P13569 with tags, fused parts or gaps DEL508-508): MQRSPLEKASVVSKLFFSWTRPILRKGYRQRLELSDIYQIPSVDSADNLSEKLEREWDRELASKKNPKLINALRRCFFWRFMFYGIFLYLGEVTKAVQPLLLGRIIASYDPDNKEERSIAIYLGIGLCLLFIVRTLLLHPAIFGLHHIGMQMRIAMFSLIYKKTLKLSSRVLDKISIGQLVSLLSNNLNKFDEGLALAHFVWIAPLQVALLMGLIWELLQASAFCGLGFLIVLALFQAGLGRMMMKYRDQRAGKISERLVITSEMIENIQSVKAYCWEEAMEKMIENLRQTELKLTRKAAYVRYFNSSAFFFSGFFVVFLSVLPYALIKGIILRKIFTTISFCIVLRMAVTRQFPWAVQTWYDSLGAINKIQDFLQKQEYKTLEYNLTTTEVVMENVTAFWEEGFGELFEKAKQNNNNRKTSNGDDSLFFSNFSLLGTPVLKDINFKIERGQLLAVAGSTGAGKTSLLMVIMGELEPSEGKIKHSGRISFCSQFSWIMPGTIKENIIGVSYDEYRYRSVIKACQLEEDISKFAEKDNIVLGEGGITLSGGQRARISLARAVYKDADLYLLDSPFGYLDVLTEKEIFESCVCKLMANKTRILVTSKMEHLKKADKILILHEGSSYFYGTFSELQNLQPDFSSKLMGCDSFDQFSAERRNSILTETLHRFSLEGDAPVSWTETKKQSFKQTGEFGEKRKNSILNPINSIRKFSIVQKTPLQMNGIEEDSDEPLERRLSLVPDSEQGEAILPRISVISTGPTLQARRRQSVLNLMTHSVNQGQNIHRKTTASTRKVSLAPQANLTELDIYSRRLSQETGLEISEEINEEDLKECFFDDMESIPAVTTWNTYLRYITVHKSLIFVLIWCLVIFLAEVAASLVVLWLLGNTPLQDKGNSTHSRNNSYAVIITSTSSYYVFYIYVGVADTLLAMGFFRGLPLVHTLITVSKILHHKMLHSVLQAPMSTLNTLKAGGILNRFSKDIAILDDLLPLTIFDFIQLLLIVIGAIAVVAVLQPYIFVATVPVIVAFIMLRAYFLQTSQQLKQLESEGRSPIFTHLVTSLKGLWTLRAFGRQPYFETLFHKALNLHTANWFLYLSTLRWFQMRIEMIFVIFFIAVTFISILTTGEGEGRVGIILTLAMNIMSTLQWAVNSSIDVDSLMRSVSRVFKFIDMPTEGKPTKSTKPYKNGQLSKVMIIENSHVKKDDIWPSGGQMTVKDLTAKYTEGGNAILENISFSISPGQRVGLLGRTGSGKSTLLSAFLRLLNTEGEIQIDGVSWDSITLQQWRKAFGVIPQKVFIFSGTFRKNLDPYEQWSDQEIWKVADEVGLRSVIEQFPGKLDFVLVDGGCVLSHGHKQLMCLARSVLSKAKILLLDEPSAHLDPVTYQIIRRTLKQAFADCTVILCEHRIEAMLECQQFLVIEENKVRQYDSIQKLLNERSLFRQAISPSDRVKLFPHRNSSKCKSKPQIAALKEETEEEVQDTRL

`CN(C(=O)c1cccc(-n2nc(C(F)(F)F)c3c2C(Oc2ccc(C(=O)O)cn2)COC3)c1)c1ccc2c(c1)OC(F)(F)O2` (single isomer, unassigned) [Compound 278, (R) or (S)-6-[[1-[3-[(2,2-difluoro-1,3-benzodioxol-5-yl)-methyl-carbamoyl]phenyl]-3-(trifluoromethyl)-6,7-dihydro-4H-pyrano[4,3-c]pyrazol-7-yl]oxy]pyridine-3-carboxylic acid] was tested, and the pEC50 was > 6.00.

For `Cc1nc2ccc(N(C)C(=O)c3cccc(-n4nc(C(F)(F)F)c5c4CCN(C(=O)OC(C)(C)C)C5)c3)cc2o1` [Compound 039, tert-Butyl 1-[3-[methyl-(2-methyl-1,3-benzoxazol-6-yl)carbamoyl]phenyl]-3-(trifluoromethyl)-6,7-dihydro-4H-pyrazolo[4,3-c]pyridine-5-carboxylate], the pEC50 was > 6.00.

`[2H]C([2H])([2H])N(C(=O)c1cccc(-n2nc(C(F)(F)F)c3c2C(Oc2ccc(C(=O)O)cc2)CCC3)c1)c1ccc2c(c1)OC(F)(F)O2` (stereo not shown) [Compound 155, 4-[[1-[3-[(2,2-Difluoro-1,3-benzodioxol-5-yl)-(trideuteriomethyl)carbamoyl]phenyl]-3-(trifluoromethyl)-4,5,6,7-tetrahydroindazol-7-yl]oxy]benzoic acid] was tested, and the pEC50 was > 6.00.

For `CN(C(=O)c1cccc(-n2nc(C(F)(F)F)c3c2CC2CCC3N2C)c1)c1ccc2c(c1)OCO2` (racemic) [Compound 023, N-(Benzo[d][1,3]dioxol-5-yl)-N-methyl-3-(9-methyl-3-(trifluoromethyl)-5,6,7,8-tetrahydro-4,7-epiminocyclohepta [c]pyrazol-1(4H)-yl)benzamide], the pEC50 was > 6.00.

`CN(C(=O)c1cccc(-n2nc(C(F)(F)F)c3c2C(Oc2ccc(C(=O)O)cc2)COC3)c1)c1ccnc(OC(F)F)c1` (single isomer, unassigned) [Compound 291, (S) or (R)-4-[[1-[3-[[2-(difluoromethoxy)-4-pyridyl]-methyl-carbamoyl]phenyl]-3-(trifluoromethyl)-6,7-dihydro-4H-pyrano[4,3-c]pyrazol-7-yl]oxy]benzoic acid] gave a pEC50 of 5.70 to 6.00.

With `CN1CCc2c(c(C(F)(F)F)nn2-c2cccc(S(=O)(=O)N(C)c3ccc4c(c3)OCO4)c2)C1` [Compound 071, N-(1,3-Benzodioxol-5-yl)-N-methyl-3-[5-methyl-3-(trifluoromethyl)-6,7-dihydro-4H-pyrazolo[4,3-c]pyridin-1-yl]benzenesulfonamide] the pEC50 was < 5.70.

In the case of `Cc1nc2ncc(N(C)C(=O)c3cccc(-n4nc(C(F)(F)F)c5c4C(Oc4ccc(C(=O)O)cc4)COC5)c3)cc2o1` (racemic) [Compound 269, 4-[[1-[3-[Methyl-(2-methyloxazolo[4,5-b]pyridin-6-yl)carbamoyl]phenyl]-3-(trifluoromethyl)-6,7-dihydro-4H-pyrano[4,3-c]pyrazol-7-yl]oxy]benzoic acid], the pEC50 was > 6.00.

For `CN(C(=O)c1cccc(-n2nc(C(F)(F)F)c3c2C(Oc2ccc(C(=O)O)cc2)CCC3)c1)c1cnc2c(c1)OCC2` (single isomer, unassigned) [Compound 275, (S) or (R)-4-[[1-[3-[2,3-Dihydrofuro[3,2-b]pyridin-6-yl(methyl)carbamoyl]phenyl]-3-(trifluoromethyl)-4,5,6,7-tetrahydroindazol-7-yl]oxy]benzoic acid], the pEC50 was > 6.00.

`CN(C(=O)c1cccc(-n2nc(C(F)(F)F)c3c2C(Oc2ccc(C(=O)O)cc2)CCC3)c1)c1cnc2c(c1)COC2` (racemic) [Compound 260, (rac)-4-[[1-[3-[5,7-Dihydrofuro[3,4-b]pyridin-3-yl(methyl)carbamoyl]phenyl]-3-(trifluoromethyl)-4,5,6,7-tetrahydroindazol-7-yl]oxy]benzoic acid] gave a pEC50 of 5.70 to 6.00.

With `CN(C(=O)c1cccc(-n2nc(C(F)(F)F)c3c2C(Oc2ccc(CO)cc2)CCC3)c1)c1ccc2c(c1)OC(F)(F)O2` (stereo in doubt) [Compound 304, N-(2,2-Difluoro-1,3-benzodioxol-5-yl)-3-[(S)-7-[4-(hydroxymethyl)phenoxy]-3-(trifluoromethyl)-4,5,6,7-tetrahydroindazol-1-yl]-N-methyl-benzamide] the pEC50 was > 6.00.

With `CN(C(=O)c1cccc(-n2nc(C(F)(F)F)c3c2C(Oc2ccc(C(=O)O)cn2)COC3)c1)c1ccc2c(c1)OC(F)(F)O2` (racemic) [Compound 213, 6-[[1-[3-[(2,2-Difluoro-1,3-benzodioxol-5-yl)-methyl-carbamoyl]phenyl]-3-(trifluoromethyl)-6,7-dihydro-4H-pyrano[4,3-c]pyrazol-7-yl]oxy]pyridine-3-carboxylic acid] the pEC50 was > 6.00.

For `Cc1noc(C)c1S(=O)(=O)N1[C@@H]2CC[C@H]1c1c(C(F)(F)F)nn(-c3cccc(C(=O)N(C)c4ccc5c(c4)OCO5)c3)c1C2` (single isomer, unassigned) [Compound 128, (4S,7R)- or (4R,7S)—N-(Benzo[d][1,3]dioxol-5-yl)-3-(9-((3,5-dimethylisoxazol-4-yl)sulfonyl)-3-(trifluoromethyl)-5,6,7,8-tetrahydro-4,7-epiminocyclohepta[c]pyrazol-1(4H)-yl)-N-methylbenzamide], the pEC50 was > 6.00.

With `CN(C(=O)c1cccc(-n2nc(C(F)(F)F)c3c2CN(C(=O)C(C)(C)C)CC3)c1)c1ccc2c(c1)OCO2` [Compound 072, N-(1,3-Benzodioxol-5-yl)-3-[6-(2,2-dimethylpropanoyl)-3-(trifluoromethyl)-5,7-dihydro-4H-pyrazolo[3,4-c]pyridin-1-yl]-N-methyl-benzamide] the pEC50 was > 6.00.

For `CNC(=O)N1CCc2c(c(C(F)(F)F)nn2-c2cccc(C(=O)N(C)c3ccc4c(c3)OCO4)c2)C1` [Compound 056, 1-[3-[1,3-Benzodioxol-5-yl(methyl)carbamoyl]phenyl]-N-methyl-3-(trifluoromethyl)-6,7-dihydro-4H-pyrazolo[4,3-c] pyridine-5-carboxamide], the pEC50 was > 6.00.

Work on `CN(C(=O)c1cccc(-n2nc(C(F)(F)F)c3c2C(Oc2ccc(C(=O)O)cc2)CCC3)c1)c1cnc2c(c1)OCC2` (single isomer, unassigned) [Compound 276, (R) or (S)-4-[[1-[3-[2,3-Dihydrofuro[3,2-b]pyridin-6-yl(methyl)carbamoyl]phenyl]-3-(trifluoromethyl)-4,5,6,7-tetrahydroindazol-7-yl]oxy]benzoic acid] yielded a pEC50 of 5.70 to 6.00.

For `CN(C(=O)c1cccc(-n2nc(C(F)(F)F)c3c2C(Oc2ccc(C(N)=O)cc2)CCC3)c1)c1ccc2c(c1)OC(F)(F)O2` (single isomer, unassigned) [Compound 284, (S) or (R)-3-[7-(4-Carbamoylphenoxy)-3-(trifluoromethyl)-4,5,6,7-tetrahydroindazol-1-yl]-N-(2,2-difluoro-1,3-benzodioxol-5-yl)-N-methyl-benzamide], the pEC50 was > 6.00.

`CCC(C)N1CCc2c(c(C(F)(F)F)nn2-c2cccc(C(=O)N(C)c3ccc4c(c3)OCO4)c2)C1` (racemic) [Compound 024, N-(1,3-Benzodioxol-5-yl)-N-methyl-3-[5-sec-butyl-3-(trifluoromethyl)-6,7-dihydro-4H-pyrazolo[4,3-c]pyridin-1-yl]benzamide] was tested, and the pEC50 was > 6.00.

`CC(C)N1CCc2c(c(C(F)(F)F)nn2-c2cccc(C(=O)N(C)c3ccc4c(c3)OCO4)c2)C1` [Compound 021, N-(1,3-Benzodioxol-5-yl)-3-[5-isopropyl-3-(trifluoromethyl)-6,7-dihydro-4H-pyrazolo[4,3-c]pyridin-1-yl]-N-methyl-benzamide] was tested, and the pEC50 was > 6.00.

With `CN(C(=O)c1cccc(-n2nc(C(F)(F)F)c3c2C(Oc2cncc(C(=O)O)c2)CCC3)c1)c1ccc2c(c1)OC(F)(F)O2` (single isomer, unassigned) [Compound 272, (R) or (S)-5-[[1-[3-[(2,2-Difluoro-1,3-benzodioxol-5-yl)-methyl-carbamoyl]phenyl]-3-(trifluoromethyl)-4,5,6,7-tetrahydroindazol-7-yl]oxy]pyridine-3-carboxylic acid] the pEC50 was 5.70 to 6.00.

For `CN(C(=O)c1cccc(-n2nc(C(F)(F)F)c3c2CCOC3)c1)c1ccc2c(c1)OCO2` [Compound 054, N-(1,3-Benzodioxol-5-yl)-N-methyl-3-[3-(trifluoromethyl)-6,7-dihydro-4H-pyrano[4,3-c]pyrazol-1-yl]benzamide], the pEC50 was > 6.00.

With `COC(=O)c1ccc(S(=O)(=O)N2CCc3c(c(C(F)(F)F)nn3-c3cccc(C(=O)N(C)c4ccc5c(c4)OCO5)c3)C2)cc1` [Compound 055, Methyl 4-[[1-[3-[1,3-benzodioxol-5-yl(methyl)carbamoyl]phenyl]-3-(trifluoromethyl)-6,7-dihydro-4H-pyrazolo[4,3-c]pyridin-5-yl]sulfonyl]benzoate] the pEC50 was > 6.00.

In the case of `CN(C(=O)c1cccc(-n2nc(C(F)(F)F)c3c2C(Oc2cncc(C(=O)O)c2)CCC3)c1)c1ccc2c(c1)OC(F)(F)O2` (stereo not shown) [Compound 178, 5-[[1-[3-[(2,2-Difluoro-1,3-benzodioxol-5-yl)-methyl-carbamoyl]phenyl]-3-(trifluoromethyl)-4,5,6,7-tetrahydroindazol-7-yl]oxy]pyridine-3-carboxylic acid], the pEC50 was > 6.00.

In the case of `Cc1cn2cc(N(C)C(=O)c3cccc(-n4nc(C(F)(F)F)c5c4CCN(C(=O)C(C)(C)C)C5)c3)ccc2n1` [Compound 091, 3-[5-(2,2-Dimethylpropanoyl)-3-(trifluoromethyl)-6,7-dihydro-4H-pyrazolo[4,3-c]pyridin-1-yl]-N-methyl-N-(2-methylimidazo[1,2-a]pyridin-6-yl)benzamide], the pEC50 was 5.70 to 6.00.

For `CN(C(=O)c1cccc(-n2nc(C(F)(F)F)c3c2CCN(C[C@@H](O)CO)C3)c1)c1ccc2c(c1)OCO2` [Compound 015, N-(1,3-Benzodioxol-5-yl)-3-[5-[(2R)-2,3-dihydroxypropyl]-3-(trifluoromethyl)-6,7-dihydro-4H-pyrazolo[4,3-c]pyridin-1-yl]-N-methyl-benzamide], the pEC50 was > 6.00.

In the case of `Cc1nc2cc(F)c(NC(=O)c3cccc(-n4nc(C(F)(F)F)c5c4CCN(C(=O)OC(C)(C)C)C5)c3)cc2o1` [Compound 037, tert-Butyl 1-[3-[(5-fluoro-2-methyl-1,3-benzoxazol-6-yl)carbamoyl]phenyl]-3-(trifluoromethyl)-6,7-dihydro-4H-pyrazolo[4,3-c]pyridine-5-carboxylate], the pEC50 was < 5.70.
